Patent US6673780B2, “Sulfoxide and bis-sulfoxide compounds and compositions for cholesterol management and related uses” (Esperion Therapeutics, Inc., priority 2000, dated 2004)

Key:
rat hepatocyte cells = test: 14C-acetate incorporation into saponified and non-saponified lipids in hepatocytes; assay type: cell-based; conditions: 30 μM; 14C-acetate labeling 4 hr; relative to vehicle control
Procedure: Washout buffer containing; 149 mM sodium chloride, 9.2 mM sodium N-2-hyroxyethylpiperazine-N′-2-ethanesulfonic acid, 1.7 mM fructose, 0.5 mM EGTA, 10 U/mL heparin at pH 7.5 and digestion buffer containing; 6.7 mM potassium chloride, 143 mM sodium chloride, 9.2 mM sodium N-2-hyroxyethylpiperazine-N′-2-ethanesulfonic acid, 5 mM calcium chloride-dihydrate, 1.7 mM fructose, 0.2% bovine serum albumin, 100 U/mL collagenase Type I, 93 U/mL Hyaluronidase, 160 BAEE/mL trypsin inhibitor at pH 7.5 were prepared. Solutions were oxygenate prior to perfusion. Wash buffer containing Dulbecco's Modified Eagle Medium (DMEM) containing 4.5 gm/L D-glucose, 2 mM GlutMax-1, 0.2% BSA, 5% fetal bovine serum (FBS), […], 1.2 μM hydrocortisone and DMEM+HS solution containing DMEM, 2 mM GlutMax-1, 20 nM delta-antinolevulinic acid, 17.4mM MEM non-essential amino acids, 20% FBS, 12 nM insulin and 1.2 μM hydrocortisone was prepared. DMEM solution containing DMEM, 2 mM GlutMax-1, 20 nM delta-aminolevulinic acid and 17.4 mM MEM non-essential amino acids were prepared. Male Sprague-Dawley rats weighing 125-250 gms were maintained on a standard rodent chow diet and freely given water. On the evening prior to cell isolation, selected healthy animals were fed restricted. […] The cell concentration was determined in several fields on the hemocytometer. […]

obese female Zucker rats = test: Two weeks of daily oral gavage treatment in chow-fed obese female Zucker rats; assay type: in vivo, rat; conditions: 100 mg/kg daily oral gavage; for ratio of HDL/non-HDL cholesterol: pretreatment 2.70; for increase of total serum cholesterol: vs pretreatment
Procedure: Dosing vehicle of Compound A (100 mg/kg) was administered to 9-10 week old female obese Zucker rats (i.e. the fa/fa or leptin receptor deficient rat) daily for 14 days in the morning by oral gavage in 1.5 percent carboxymethylcellulose/0.2 percent […]. Tail vein blood for glucose determinations (without anesthesia) and orbital blood samples for serum (with anestehesia for all other determinations) were obtained following a 6 hour fast prior to the initial dose and after one and two weeks of dosing.
Blood serum were assayed for insulin, non-esterified fatty acids, […], total cholesterol, and triglycerides (FIG. 2). Glucose was determined in whole blood (Table 1). Blood serum was also used to produce lipoprotein cholesterol profiles (FIG. 2), and used to determine VLDL plus LDL cholesterol combined (also referred to as apoB containing lipoprotein cholesterol or non-HDL cholesterol), HDL cholesterol, and the ratio of HDL cholesterol to that of VLDL plus LDL cholesterol (FIG. 2). In addition, the effect of Compound A on weight gain after 14 days and the liver to body weight ratio at sacrifice are shown in FIG. 2.

## CC(C)(CO)CCCC[S+]([O-])CCCCC(C)(C)CO [Compound A, 6-(5,5-Dimethyl-6-hydroxy-hexane-1-sulfinyl)-2,2-dimethyl-hexan-1-ol]
Rat hepatocyte cells
  reduction of rate of non-saponifiable lipid synthesis: 54%
  reduction of rate of saponifiable lipid synthesis: 25%
Obese female Zucker rats; after one and two weeks, 6 hour fast
  blood glucose levels, pretreatment versus posttreatment: similar
Obese female Zucker rats; after one week of treatment
  increase in HDL cholesterol: 2.2 fold
  increase of non-HDL cholesterol (VLDL plus LDL cholesterol): 38%
  reduction of serum triglycerides: 48%
  ratio of HDL/non-HDL cholesterol: 3.84
  increase of total serum cholesterol: 98%
Obese female Zucker rats; after two weeks of treatment
  increase in HDL cholesterol: 3.1 fold
  increase of non-HDL cholesterol (VLDL plus LDL cholesterol): 62%
  reduction of serum triglycerides: 42%
  ratio of HDL/non-HDL cholesterol: 4.97
  increase of total serum cholesterol: 74%
Obese female Zucker rats; after two weeks, elevated from 2.35 pretreatment
  serum β-hydroxy butyrate: 3.94 mg/dL
Obese female Zucker rats; after two weeks, reduced from 2.28 pretreatment
  serum non-esterified fatty acids: 0.74 mmol/L
